Source: patent publication US20210308143A1, “COMPOSITIONS AND METHODS FOR REDUCING BODY FAT” (Topokine Therapeutics, Inc., priority 2006, published 2021)
Entries after “also recorded” stand apart in the source; their conditions may differ.

Assays:
[1] = tested on: laboratory rodents (hairless rats or nude mice); experiment: In vivo rodent study, daily topical ointment on abdominal skin; conditions: daily topical ointment 0.003-0.3%, six months
Protocol: Animal preparation. Genetically uniform laboratory rodents (for example, hairless rats or nude mice) are used. They are adult laboratory rodents similar in size at the commencement of the study (approximately postnatal week 15 for rats). Multiple animals are tested. Animals randomized to bimatoprost are housed separately from control animals but are kept in the same room under identical environmental conditions. All animals are fed a standard diet, appropriate for the species, ad libidum.
Method. In all cases the vehicle is a compatible ointment, such as petrolatum, with a final bimatoprost concentration of 0%, 0.003%, 0.03%, or 0.3%. A fixed amount of ointment, for example 1 gram, is applied daily in a thin film over a uniform surface area of the abdominal skin of each animal. Each animal is randomized to a daily application of a dose of topical bimatoprost or vehicle alone. On a weekly basis, total body mass of each animal is determined on a scale. Total body fat is estimated by any of the several methods established for this purpose, for example, water displacement (Dahms et al. (1982) J NUTR. 112: 398-400), isotopic dilution (Culebras et al. (1977) J. PHYSIOL. 232: R60-65), Total Body Electrical Conductance (TOBEC) (Baer et al. (1993) PHYSIOL. BEHAV. 53: 1195-99), Dual-Energy X-Ray Absorptiometry (DEXA) (Bertin et al. (1998) J NUTRITION 128: 1550-54), or Nuclear Magnetic Resonance (NMR) (Kunnecke et al. (2004) OBES RES. 12: 1604-151. Animals are maintained and monitored in this fashion for six months, at which point they are sacrificed.
Analysis and Results. Abdominal fat pads of the sacrificed animals are excised and measured directly for mass and volume. Direct carcass analysis with chemical extraction may be further performed (Frisch et al. (1977) PNAS 74: 379-383). All results are normalized with reference to baseline values and then compared between bimatoprost and control groups.

[2] = tested on: 3T3-L1 preadipocytes and mature adipocytes; experiment: MTS test for cell viability; assay type: cell-based, mouse
Protocol: (§1) Preparation of preadipocytes. 3T3-L1 mouse embryo fibroblasts are obtained and cultured. Cells are cultured at 37° C. in a humidified 5% CO2 atmosphere and grown in Dulbecco's modified Eagle's medium (DMEM) with 10% bovine calf serum. Confluency is induced for 2 days (Days −1 and 0) and preadipocytes are cultured in DMEM with 10% fetal bovine serum (FBS/DMEM) medium, supplemented with 167 nM insulin, […] isobutylmethylxanthine, and 1 μM dexamethasone for 2 days (Days 1 and 2).
Preparation (induction) of mature adipocytes from preadipocytes. Preadipocytes prepared as above are then maintained in a culture medium with 167 nM insulin supplement for another 2 days (Days 3 and 4), followed by culturing with 10% FBS/DMEM medium for an additional 4 days (Days 5-8), at which time >90% of the cells are expected to have differentiated and matured into adipocytes with accumulated fat droplets. All media contains 100 U/mL penicillin, 100 μg/mL streptomycin, and 292 μg of L-glutamine/mL. […]
Test for cell viability. […] The plate is analyzed by spectrometry at a wavelength of 490 nm, which is an absorbance peak for formazan. The quantity of formazan as measured by absorbance at 490 nm is a directly proportional to the number of viable cells.

[3] = tested on: 3T3-L1 preadipocytes and mature adipocytes; experiment: TUNEL imaging test for apoptosis; assay type: cell-based, mouse
Protocol: as §1
(§2) Preparation (induction) of mature adipocytes from preadipocytes. Preadipocytes prepared as above are then maintained in a culture medium with 167 nM insulin supplement for another 2 days (Days 3 and 4), followed by culturing with 10% FBS/DMEM medium for an additional 4 days (Days 5-8), at which time >90% of the cells are expected to have differentiated and matured into adipocytes with accumulated fat droplets. All media contains 100 U/mL penicillin, 100 μg/mL streptomycin, and 292 μg of L-glutamine/mL.
Test for apoptosis (2). Terminal Deoxynucleotidyl Transferase dUTP Nick-End Labeling (TUNEL) Imaging is one of the most common assays for apoptosis. […] Apoptosis manifests as fluorescence upon microscopic examination, which reflects the antibody-labeled BrdU incorporated at the cleaved portions of DNA.

[4] = tested on: mature adipocytes (from 3T3-L1); experiment: Laser scanning cytometry (annexin V/PI) test for apoptosis; assay type: cell-based, mouse; conditions: 24 hours
Protocol: as §1, §2
All experiments, except where otherwise indicated, are performed with bimatoprost added to the culture medium for a final concentration of 0%, 0.003%, 0.03%, or 0.3% for a duration of 3, 6, 12, or 24 hours [with 1:1000 dimethyl sulfoxide (DMSO)]. […]
Test for apoptosis (1). […] Apoptotic cells fluoresce and are detected by LSC, since AV binds specifically to phosphatidylserine in the disrupted plasma membrane. […]

3T3-L1 preadipocytes = experiment: Oil-Red-O test for differentiation of preadipocytes into mature adipocytes; assay type: cell-based, mouse
Protocol: as §1, §2
Test for differentiation of preadipocytes into mature adipocytes. Oil-Red-O, a specific lipid stain, is used to test the effect of bimatoprost on adipogenesis. […] For each dish, multiple images are taken and analyzed for average lipid droplet size, percentage lipid area, and total droplet number with software. […]

human subjects = experiment: In vivo human randomized double-blind study, topical ointment over triceps; conditions: daily petrolatum ointment 0.003-0.3%, 6 months
From the text: Multiple human subjects (both male and female), for example, with body mass indices of 30 or more but otherwise healthy, are entered into a randomized double-blind study. Either the left or the right arm is randomized to receive topical bimatoprost; the other arm receives vehicle only. Bimatoprost is supplied in a petrolatum-based ointment (the vehicle) at a final concentration of 0%, 0.003%, 0.03% or 0.3%. Ointment containers are unlabeled as to the presence or concentration of bimatoprost. Each day, subjects apply a thin film of ointment to the skin over the respective triceps while wearing new, clean surgical gloves. Subjects are instructed to refrain from washing the treated area for at least 8 hours and are instructed to refrain from wearing tight clothing or occlusive dressings that will come into contact with the treated area. Body fat calipers are used to measure fat in the triceps region bilaterally on a weekly basis. The study continues for 6 months. […] As a result, this contemplated outcome will show, in vivo, that compounds according to the present invention, including bimatoprost, can reduce fat.

human eye = conditions: eyedrops, glaucoma, cited from earlier work
human patients = experiment: Clinical application examples (Examples 4-8), local bimatoprost to reduce fat deposits; assay type: in vivo; conditions: for fat pad between shoulders / fatty deposits on cheeks: daily ointment to face and between shoulders
From the text: In light of the foregoing description, the specific non-limiting examples presented below are for illustrative purposes and not intended to limit the scope of the invention in any way. In Examples 4-8, various modes of non-systemic administration of a cyclopentane heptanoic acid, 2-arylalkyl or cycloalkyl compound or derivative thereof can be used, for example, by topical application (ointment, cream, or transdermal patch), subcutaneous injection, intramuscular injection, or intralesional injection, any of which may involve a controlled (or sustained) release formulation or depot. In addition to medical therapy, the person's physician recommends a regimen of diet and exercise. After six months the person is unable to lose weight. The physician prescribes daily topical application of a bimatoprost ointment to the abdomen as treatment for central obesity. […] The person's physician prescribes a daily application of a bimatoprost ointment to the face and between the shoulders as treatment for the fat deposits. […] The person's physician prescribes a daily application of a bimatoprost ointment to the face and between the shoulders as treatment for the fat deposits. […] The plastic surgeon prescribes a daily application of a bimatoprost ointment to the hips and thighs as treatment for the fat deposits. […] The doctor prescribes an ophthalmic preparation of bimatoprost daily to both eyes as a treatment for the proptosis and exposure symptoms.

[5] = preadipocytes and/or mature adipocytes
[6] = Example 4, obese person, daily ointment to abdomen
[7] = Example 5, Cushing syndrome secondary to prednisone
[8] = Example 6, HIV-related lipodystrophy
[9] = Example 8, Grave's disease orbitopathy, ophthalmic preparation daily to both eyes

## CCNC(=O)CCC/C=C\C[C@@H]1[C@@H](/C=C/[C@@H](O)CCc2ccccc2)[C@H](O)C[C@@H]1O [bimatoprost, cyclopentane N-ethyl heptenamide-5-cis-2-(3α-hydroxy-5-phenyl-1-trans-pentenyl)-3,5-dihydroxy, [1α, 2β, 3α, 5α]]
[1]
  subcutaneous (abdominal) fat mass compared to control animals: lower subcutaneous (abdominal) fat mass
  total body fat mass compared to control animals: lower total body fat mass
  total body mass compared to control animals: lower total body mass
[2]; bimatoprost 0.003%, 0.03% or 0.3%, up to 24 hours, vs DMSO control
  absorbance at 490 nm on MTS testing, treated cells compared to control cells: lower absorbance at 490 nm
[2]; [5]
  rates of viability compared to control samples: lower rates of viability
[3]; preadipocytes and mature adipocytes, 24 hours
  BrdU-antibody-labeled cells on TUNEL imaging compared to control samples: more BrdU-antibody-labeled (fluorescent) cells
[3]; [5]
  rates of apoptosis compared to control samples: higher rates of apoptosis
[4]
  AV-labeled and/or PI-labeled cells on laser scanning cytometry compared to control samples: more AV-labeled and/or PI-labeled (apoptotic or dead) cells
3T3-L1 preadipocytes; bimatoprost 0.003%, 0.03%, and 0.3% μM added with induction medium
  lipid droplets on Oil-Red-O staining compared to control samples: smaller and fewer lipid droplets
3T3-L1 preadipocytes; preadipocytes
  rates of differentiation into mature adipocytes compared to control samples: lower rates of differentiation into mature adipocytes
Human subjects
  fat in treated body area (triceps, calipers) compared to vehicle-treated area: lower fat
Human eye; Peplinski et al. (2004)
  unwanted side-effects: periocular pigmentary changes involving the eyelid; also recorded: deepening of the lid sulcus
Human eye
  intraocular pressure: decrease intraocular pressure
Human patients; [6]
  BMI: BMI is reduced
  abdominal fat deposits: abdominal fat deposits are reduced
Human patients; [7]
  fat pad between shoulders: fat pad between their shoulders is reduced
  fatty deposits on cheeks: fatty deposits on the person's cheeks are reduced
Human patients; [8]
  fat pad between shoulders: fat pad between their shoulders is reduced
  fatty deposits on cheeks: fatty deposits on the person's cheeks are reduced
Human patients; Example 7, daily ointment to hips and thighs
  fatty deposits on hips and/or thighs: fatty deposits on the person's hips and/or thighs are reduced
Human patients; [9]
  condition (proptosis and exposure symptoms): their condition improves
  orbital fat: orbital fat is reduced
